# Experimental data reported in publication PMC10970924 (Life, 2024).
# Marks after values point to notes of the source that are not given here.
# What was measured:
# [1] = Neutralization of the ABTS radical; conditions: for EC50: 37 °C, 15 min, 738 nm, read-out: EC50 of half-maximal ABTS radical inhibition; for Trolox Equivalent Antioxidant Capacity (TEAC): ABTS radical neutralization, relative to Trolox
# Procedure: Initially, an ABTS solution was prepared in water at a concentration of 7 mM. Subsequently, the radical cation ABTS^•+ was generated by mixing the original ABTS solution with 2.45 mM ammonium persulfate at a 1:1 ratio. This mixture was then allowed to stand in the dark at room temperature for 12–16 h before use. The diluted ABTS^•+ solution was prepared in a methanol/water mixture (1:1) reaching an optical density of 0.7 units at 738 nm (~0.7 mM). Next, various concentrations of compounds (ranging from 1000, 500, 250, 125, 62.5, 31.2, 15.6, to 7.8 μM) in a volume of 130 µL in a methanol/water mixture (1:1) were mixed with the ABTS radical cation solution (~0.7 mM) in a volume of 130 µL. The mixture was then incubated at 37 °C in a water bath for 15 min. The optical density was measured at 738 nm using the Infinite M200 PRO (TECAN, Zürich, Switzerland) plate reader. The percentage inhibition of ABTS absorption relative to the control was calculated. A percent inhibition vs. antioxidant concentration graph was plotted and the concentration of the antioxidant that suppresses the optical density of the ABTS radical by 50% (EC50) was determined. The Trolox Equivalent Antioxidant Capacity (TEAC) was also calculated.
# porcine neuronal tubulin = experiment: Tubulin polymerization assay (Cytoskeleton kit); format: biochemical; conditions: effector 10 µM; for Maximum Initial Rate of Polymerization V Max: tubulin 3 mg/mL, 37 °C
# Procedure: To assess the effect of the test compounds on tubulin polymerization, a test kit from Cytoskeleton was used. The plate was pre-warmed to 37 °C for 20 min before starting the assay. Then, 10 µL of the compound of interest, at a 10-fold concentration in an assay buffer, was pipetted into the plate. For comparison, paclitaxel, a polymerization enhancer, and vinblastine, a tubulin polymerization inhibitor, were used. Both effectors were used at a concentration of 10 µM. The assay buffer served as a control. The plate was then incubated at 37 °C for 2 min, after which 100 µL of the diluted tubulin solution (containing 3 mg/mL of tubulin in 80 mM PIPES pH 6.9, 2 mM MgCl2, 0.5 mM EGTA, 1 mM GTP, and 7% glycerol) was added. The plate was then immediately placed in the plate reader. Absorbance was measured at 340 nm every minute for 61 readings on a Varioskan LUX (Thermo Scientific, Waltham, MA, USA) plate reader.
SMILES,EC50 [1] [µM],Trolox Equivalent Antioxidant Capacity (TEAC) [1],Maximum Initial Rate of Polymerization V Max (porcine neuronal tubulin),other results
O=C1O[C@H]([C@@H](O)CO)C(O)=C1O [Ascorbic acid],15.2 ± 4.8,1.03,,
"CC(=O)O[C@H]1C(=O)[C@@]2(C)[C@H]([C@H](OC(=O)c3ccccc3)[C@]3(O)C[C@H](OC(=O)[C@H](O)[C@@H](NC(=O)c4ccccc4)c4ccccc4)C(C)=C1C3(C)C)[C@]1(OC(C)=O)CO[C@@H]1C[C@@H]2O [Paclitaxel, paclitaxel]",,,8 * mOD/Min,"Vmax, times higher than in the control reaction (porcine neuronal tubulin): 1.2; Maximum Initial Rate of Polymerization V Max (porcine neuronal tubulin; listed as paclitaxel): 8.0 mOD/Min"
"CC[C@]1(O)C[C@@H]2CN(CCc3c([nH]c4ccccc34)[C@@](C(=O)OC)(c3cc4c(cc3OC)N(C)[C@H]3[C@@](O)(C(=O)OC)[C@H](OC(C)=O)[C@]5(CC)C=CCN6CC[C@]43[C@@H]65)C2)C1 [Vinblastine, vinblastine]",,,2.4 * mOD/Min,"Inhibition of tubulin polymerization, fold (porcine neuronal tubulin): 3; Maximum Initial Rate of Polymerization V Max (porcine neuronal tubulin; listed as vinblastine): 2.4 mOD/Min"

# Continued, in another order:
EC50 [1] [µM],SMILES,Trolox Equivalent Antioxidant Capacity (TEAC) [1],Maximum Initial Rate of Polymerization V Max (porcine neuronal tubulin),other results
3.2 ± 1.6,O=c1c(O)c(-c2ccc(O)c(O)c2)oc2cc(O)cc(O)c12 [Quercetin],4.9,,
15.7 ± 3.4,Cc1c(C)c2c(c(C)c1O)CCC(C)(C(=O)O)O2 (stereo not drawn) [Trolox],1.0,,
